For 27 compounds, IC50 results are on record in patent US20250346592A1 (Celgene Corporation, priority 2022, published 2025).

Chain of hPAD4 enzyme (Q9UM07 whole entry): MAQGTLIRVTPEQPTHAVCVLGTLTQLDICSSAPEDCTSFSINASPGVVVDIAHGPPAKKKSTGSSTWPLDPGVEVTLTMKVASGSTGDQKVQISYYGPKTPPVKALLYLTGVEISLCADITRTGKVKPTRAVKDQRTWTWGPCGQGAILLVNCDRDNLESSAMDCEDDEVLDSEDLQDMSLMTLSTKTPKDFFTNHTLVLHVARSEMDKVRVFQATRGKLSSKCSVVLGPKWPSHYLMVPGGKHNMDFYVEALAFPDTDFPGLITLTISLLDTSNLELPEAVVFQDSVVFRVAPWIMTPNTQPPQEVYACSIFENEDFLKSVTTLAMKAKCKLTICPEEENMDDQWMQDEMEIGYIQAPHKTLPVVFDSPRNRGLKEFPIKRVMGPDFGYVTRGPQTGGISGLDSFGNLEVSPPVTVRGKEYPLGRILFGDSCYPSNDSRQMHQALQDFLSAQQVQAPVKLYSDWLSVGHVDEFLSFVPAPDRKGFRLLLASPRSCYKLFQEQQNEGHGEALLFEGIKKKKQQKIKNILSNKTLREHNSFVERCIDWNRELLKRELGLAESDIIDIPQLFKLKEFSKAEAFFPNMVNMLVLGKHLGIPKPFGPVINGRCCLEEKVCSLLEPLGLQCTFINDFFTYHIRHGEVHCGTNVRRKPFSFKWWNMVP

The target of this assay is hPAD4 enzyme (Homo sapiens (Human), UniProt Q9UM07). Briefly: RFMS2 assay (RapidFire mass spectrometry, TSTGGRQGSHH peptide substrate). The format is biochemical. The following applies: 35 nM recombinant human PAD4, 500 μM TSTGGRQGSHH peptide, 30 minutes at room temperature; read-out: RFMS 2 IC50. The method, boiled down:
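Recombinant human PAD4 (35 nM) with 500 μM TSTGGRQGSHH peptide in HEPES pH 7.4, 200 mM NaCl, 2 mM CaCl2, 5 mM DTT, 1.2% DMSO, 30 min at room temperature; 3-fold compound series, top 20 μM. Quenched with formic acid; substrate and citrullinated product quantified by RapidFire MRM mass spectrometry for IC50.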
In the case of `Cn1c(-c2cc3cccc(OCC4COC(=O)N4)c3n2CC2CC2)nc2cc3c(cc21)CCN(C[C@H](N)CF)C3=O` (stereo partly drawn) [Example 172, 4-(((2-(6-((S)-2-amino-3-fluoropropyl)-1-methyl-5-oxo-5,6,7,8-tetrahydro-1H-imidazo[4,5-g]isoquinolin-2-yl)-1-(cyclopropylmethyl)-1H-indol-7-yl)oxy)methyl)oxazolidin-2-one], the IC50 lay within 0.011 to 0.1 µM.
Next, `COc1cccc2cc(-c3nc4cc5c(cc4n3C)CCN(C[C@H](N)CF)C5=O)n(Cc3cc(C#N)no3)c12` [Example 137, (S)-5-((2-(6-(2-amino-3-fluoropropyl)-1-methyl-5-oxo-5,6,7,8-tetrahydro-1H-imidazo[4,5-g]isoquinolin-2-yl)-7-methoxy-1H-indol-1-yl)methyl)isoxazole-3-carbonitrile]: 0.101 to 0.5 µM; `Cc1ccc2cc(-c3nc4cc5c(cc4n3C)CCN(C[C@H](N)CF)C5=O)n(CC3CC3)c2c1` [Example 47, (S)-6-(2-amino-3-fluoropropyl)-2-(1-(cyclopropylmethyl)-6-methyl-1H-indol-2-yl)-1-methyl-1,6,7,8-tetrahydro-5H-imidazo[4,5-g]isoquinolin-5-one]: 0.101 to 0.5 µM.
Next, `Cn1c(-c2cc3cccc(OCCc4cc[nH]c4)c3n2CC2CC2)nc2cc3c(cc21)CCN(C[C@H](N)CF)C3=O` [Example 203]: 0.101 to 0.5 µM; `COCCn1c(-c2nc3cc4c(cc3n2C)CCN(C[C@H](N)CF)C4=O)cc2ccc(OC)nc21` [Example 105, (S)-6-(2-amino-3-fluoropropyl)-2-(6-methoxy-1-(2-methoxyethyl)-1H-pyrrolo[2,3-b]pyridin-2-yl)-1-methyl-1,6,7,8-tetrahydro-5H-imidazo[4,5-g]isoquinolin-5-one]: above 1 µM.
The value for `Cn1c(-c2cc3ccncc3n2CC2CC2)nc2cc3c(cc21)CCN(C[C@H](N)CF)C3=O` [Example 52, (S)-6-(2-amino-3-fluoropropyl)-2-(1-(cyclopropylmethyl)-1H-pyrrolo[2,3-c]pyridin-2-yl)-1-methyl-1,6,7,8-tetrahydro-5H-imidazo[4,5-g]isoquinolin-5-one] was above 1 µM.
Consider `C[C@@H](N)CN1CCc2cc3c(cc2C1=O)nc(-c1cc2cccc(F)c2n1CC1CC1)n3C` [Example 30, (R)-6-(2-aminopropyl)-2-(1-(cyclopropylmethyl)-7-fluoro-1H-indol-2-yl)-1-methyl-1,6,7,8-tetrahydro-5H-imidazo[4,5-g]isoquinolin-5-one], for which the IC50 was in the range of 0.101 to 0.5 µM.
The value for `Cn1c(-c2cc3cccc(OCCn4cccc4)c3n2CC2CC2)nc2cc3c(cc21)CCN(C[C@H](N)CF)C3=O` [Example 180, (S)-2-(7-(2-(1H-pyrrol-1-yl)ethoxy)-1-(cyclopropyl-methyl)-1H-indol-2-yl)-6-(2-amino-3-fluoropropyl)-1-methyl-1,6,7,8-tetrahydro-5H-imidazo[4,5-g] isoquinolin-5-one] was 0.101 to 0.5 µM; that for `Cc1nnc(COc2cccc3cc(-c4nc5cc6c(cc5n4C)CCN(C[C@H](N)CF)C6=O)n(CC4CC4)c23)o1` [Example 177, (S)-6-(2-amino-3-fluoropropyl)-2-(1-(cyclopropyl-methyl)-7-((5-methyl-1,3,4-oxadiazol-2-yl)methoxy)-1H-indol-2-yl)-1-methyl-1,6,7,8-tetrahydro-5H-imidazo[4,5-g]isoquinolin-5-one] was 0.101 to 0.5 µM; that for `COc1cccc2cc(-c3nc4cc5c(cc4n3C)CCN(C[C@H](N)CF)C5=O)n(Cc3ccno3)c12` [Example 111, (S)-6-(2-amino-3-fluoropropyl)-2-(1-(isoxazol-5-ylmethyl)-7-methoxy-1H-indol-2-yl)-1-methyl-1,6,7,8-tetrahydro-5H-imidazo[4,5-g]isoquinolin-5-one] was 0.011 to 0.1 µM.
Next, `COc1nccc2cc(-c3nc4cc5c(cc4n3C)CCN(C[C@@H](C)N)C5=O)n(CC3CC3)c12` [Example 31, (R)-6-(2-aminopropyl)-2-(1-(cyclopropylmethyl)-7-methoxy-1H-pyrrolo[2,3-c]pyridin-2-yl)-1-methyl-1,6,7,8-tetrahydro-5H-imidazo[4,5-g]isoquinolin-5-one]: 0.501 to 1 µM; `COc1cccc2cc(-c3nc4cc5c(cc4n3C)CCN(C[C@H](N)CF)C5=O)n(Cc3cccnn3)c12` [Example 126, (S)-6-(2-amino-3-fluoropropyl)-2-(7-methoxy-1-(pyridazin-3-ylmethyl)-1H-indol-2-yl)-1-methyl-1,6,7,8-tetrahydro-5H-imidazo[4,5-g]isoquinolin-5-one]: 0.101 to 0.5 µM; `Cn1c(-c2cc3cccnc3n2CC2CC2)nc2cc3c(cc21)CCN(C[C@H](N)CF)C3=O` [Example 49, (S)-6-(2-amino-3-fluoropropyl)-2-(1-(cyclopropylmethyl)-1H-pyrrolo[2,3-b]pyridin-2-yl)-1-methyl-1,6,7,8-tetrahydro-5H-imidazo[4,5-g]isoquinolin-5-one]: above 1 µM.
Regarding `COc1cccc2cc(-c3nc4cc5c(cc4n3C)CCN(C[C@H](N)CF)C5=O)n(CC(C)OC)c12` (single isomer, unassigned) [Example 131], the IC50 fell in the range of 0.501 to 1 µM.
Next, `COc1cccc2cc(-c3nc4cc5c(cc4n3C)CCN(C[C@H](N)CF)C5=O)n(Cc3cc(Cl)no3)c12` [Example 136, (S)-6-(2-amino-3-fluoropropyl)-2-(1-((3-chloroisoxazol-5-yl)methyl)-7-methoxy-1H-indol-2-yl)-1-methyl-1,6,7,8-tetrahydro-5H-imidazo[4,5-g]isoquinolin-5-one]: 0.101 to 0.5 µM; `Cn1c(-c2cc3cccc(OCC4CCNC4=O)c3n2CC2CC2)nc2cc3c(cc21)CCN(C[C@H](N)CF)C3=O` (stereo partly drawn) [Example 219, 6-((S)-2-amino-3-fluoropropyl)-2-(1-(cyclopropylmethyl)-7-((2-oxopyrrolidin-3-yl)methoxy)-1H-indol-2-yl)-1-methyl-1,6,7,8-tetrahydro-5H-imidazo[4,5-g]isoquinolin-5-one]: 0.101 to 0.5 µM.
Next, `C[C@@H](N)CN1CCc2cc3c(cc2C1=O)nc(-c1cc2ccnc(Cl)c2n1CC1CC1)n3C` [Example 22, (R)-6-(2-aminopropyl)-2-(7-chloro-1-(cyclopropylmethyl)-1H-pyrrolo[2,3-c]pyridin-2-yl)-1-methyl-1,6,7,8-tetrahydro-5H-imidazo[4,5-g]isoquinolin-5-one]: above 1 µM; `COC(=O)N[C@H](C)COc1cccc2cc(-c3nc4cc5c(cc4n3C)CCN(C[C@H](N)CF)C5=O)n(CC3CC3)c12` [Example 209, methyl ((R)-1-((2-(6-((S)-2-amino-3-fluoropropyl)-1-methyl-5-oxo-5,6,7,8-tetrahydro-1H-imidazo[4,5-g]isoquinolin-2-yl)-1-(cyclopropylmethyl)-1H-indol-7-yl)oxy)propan-2-yl) carbamate]: 0.501 to 1 µM; `COc1cccc2cc(-c3nc4cc5c(cc4n3C)CCN(C[C@H](N)CF)C5=O)n(Cc3cnco3)c12` [Example 117, (S)-6-(2-amino-3-fluoropropyl)-2-(7-methoxy-1-(oxazol-5-ylmethyl)-1H-indol-2-yl)-1-methyl-1,6,7,8-tetrahydro-5H-imidazo[4,5-g]isoquinolin-5-one]: 0.101 to 0.5 µM.
The value for `Cn1c(-c2cc3cccc(OC[C@H](O)C(F)(F)F)c3n2CC2CC2)nc2cc3c(cc21)CCN(C[C@H](N)CF)C3=O` [Example 216, 6-((S)-2-amino-3-fluoropropyl)-2-(1-(cyclopropylmethyl)-7-((S)-3,3,3-trifluoro-2-hydroxypropoxy)-1H-indol-2-yl)-1-methyl-1,6,7,8-tetrahydro-5H-imidazo[4,5-g]isoquinolin-5-one] was 0.101 to 0.5 µM; that for `COCCn1c(-c2nc3cc4c(cc3n2C)CCN(C[C@H](N)CF)C4=O)cc2ccccc21` [Example 94, (S)-6-(2-amino-3-fluoropropyl)-2-(1-(2-methoxyethyl)-1H-indol-2-yl)-1-methyl-1,6,7,8-tetrahydro-5H-imidazo[4,5-g]isoquinolin-5-one] was 0.501 to 1 µM.
With `Cn1c(-c2cc3cccc(OCCC4CNC(=O)C4)c3n2CC2CC2)nc2cc3c(cc21)CCN(C[C@H](N)CF)C3=O` (single isomer, unassigned) [Example 179], the 50% inhibitory concentration (IC50) is 0.101 to 0.5 µM.
The value for `C[C@@H](N)CN1CCc2cc3c(cc2C1=O)nc(-c1cc2ccc(Cl)cc2n1CC1CC1)n3C` [Example 25, (R)-6-(2-aminopropyl)-2-(6-chloro-1-(cyclopropylmethyl)-1H-indol-2-yl)-1-methyl-1,6,7,8-tetrahydro-5H-imidazo[4,5-g]isoquinolin-5-one] was 0.101 to 0.5 µM; that for `COc1cccc2cc(-c3nc4cc5c(cc4n3C)CCN(C[C@H](N)CF)C5=O)n(Cc3ccc(C#N)o3)c12` [Example 140, (S)-5-((2-(6-(2-amino-3-fluoropropyl)-1-methyl-5-oxo-5,6,7,8-tetrahydro-1H-imidazo[4,5-g]isoquinolin-2-yl)-7-methoxy-1H-indol-1-yl)methyl)furan-2-carbonitrile] was 0.011 to 0.1 µM.
Regarding `CCN[C@H](C)CN1CCc2cc3c(cc2C1=O)nc(-c1cc2ccccc2n1CC1CC1)n3C` [Example 2, (R)-2-(1-(cyclopropylmethyl)-1H-indol-2-yl)-6-(2-(ethylamino)propyl)-1-methyl-1,6,7,8-tetrahydro-5H-imidazo[4,5-g]isoquinolin-5-one], the IC50 lay in the range of 0.501 to 1 µM.
The value for `CCCN[C@H](C)CN1CCc2cc3c(cc2C1=O)nc(-c1cc2ccccc2n1CC1CC1)n3C` [Example 4, (R)-2-(1-(cyclopropylmethyl)-1H-indol-2-yl)-1-methyl-6-(2-(propylamino)propyl)-1,6,7,8-tetrahydro-5H-imidazo[4,5-g]isoquinolin-5-one] was above 1 µM; that for `Cn1cc(Cn2c(-c3nc4cc5c(cc4n3C)CCN(C[C@H](N)CF)C5=O)cc3ccccc32)cn1` [Example 95, (S)-6-(2-amino-3-fluoropropyl)-1-methyl-2-(1-((1-methyl-1H-pyrazol-4-yl)methyl)-1H-indol-2-yl)-1,6,7,8-tetrahydro-5H-imidazo[4,5-g]isoquinolin-5-one] was 0.501 to 1 µM.
